Assay [1] deals with Matrix protein 2 (Influenza A virus) (UniProt P06821). The assay can be described thus: Inhibition of full length influenza A virus A/Udorn/72 (H3N2) M2 expressed in Xenopus laevis oocytes assessed as inhibition of channel current at 100 uM measured after 5 mins by two-electrode voltage clamp assay relative to control. To be noted: Oocyte. Type of assay: cell-based.
The target is the same in assay [2]. The assay is described as follows: Binding affinity to C-terminal amidated influenza A virus A/Udorn/72 (H3N2) M2 transmembrane domain (22 to 46 residues) in DPC micelles at pH 8 assessed as change in entropy by ITC analysis. (In ITC the heat of successive injections is recorded.)
Assay [3] has the same target. To be noted: A/Udorn/72 (H3N2).
Description: Binding affinity to C-terminal amidated influenza A virus A/Udorn/72 (H3N2) M2 transmembrane domain (22 to 46 residues) in DPC micelles at pH 8 assessed as change in enthalpy by ITC analysis
Another assay concerns Influenza A virus. The assay is described as follows: Antiviral activity against amantadine-sensitive influenza A virus A/Udorn/72 (H3N2) infected in MDCK cells assessed as inhibition of virus-induced cytopathic effect incubated for 48 hrs by crystal violet/neutral red staining based assay. Format: functional, organism-based.
For assay [4], the target named is Matrix protein 2 (Influenza A virus) (UniProt P06821). The assay is described as follows: Inhibition of full length influenza A virus A/Udorn/72 (H3N2) M2 expressed in Xenopus laevis oocytes assessed as inhibition of channel current at 100 uM measured after 2 mins by two-electrode voltage clamp assay relative to control. Format: cell-based. The note with it: Oocyte.

Assay [5] has the same target. The note with it: A/Udorn/72 (H3N2). This is another data set of the same source.
Description: Binding affinity to C-terminal amidated influenza A virus A/Udorn/72 (H3N2) M2 transmembrane domain (22 to 46 residues) in DPC micelles at pH 8 assessed as gibbs free energy change by ITC analysis
Another assay addresses Matrix protein 2 (Influenza A virus, UniProt P06821).

pIC50, pKd: −log10 of the molar value.

Matrix protein 2 (Influenza A virus), sequence (P06821 whole entry, the tested form may be a part): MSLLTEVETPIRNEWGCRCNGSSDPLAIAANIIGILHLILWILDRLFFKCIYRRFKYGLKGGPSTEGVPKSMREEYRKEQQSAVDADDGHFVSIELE
Matrix protein 2, sequence (P06821 whole entry): as the sequence (P06821 whole entry, the tested form may be a part) above

With `C[C@@H](N)C12CC3CC(CC(C3)C1)C2`, the inhibition in assay [1] was determined as 95%; in assay [4], 93%. In addition, the -TdeltaS in assay [2] was -1.42 kcal/mol. Besides, in assay [3], the deltaH is -7.54 kcal/mol. Besides, the pIC50 with Influenza A virus is 7.30. In assay [5], this compound had a deltaG of -8.97 kcal/mol.

For the compound `NC12CC3CC(CC(C3)C1)C2` [AMANTADINE], the inhibition in assay [1] was determined as 95%. Moreover, in assay [2], the -TdeltaS was -1.11 kcal/mol. In addition, in assay [3], the deltaH was -6.66 kcal/mol. Also, the pIC50 in the assay with Influenza A virus is 6.48. Further, in assay [5], the deltaG is -7.77 kcal/mol.

Turning to `CC(C)(N)C12CC3CC(CC(C3)C1)C2`, the inhibition in assay [1] is 96%; in assay [4] it was 90%. Besides, in assay [2], the -TdeltaS is -5.12 kcal/mol. Besides, the pKd at Matrix protein 2 was 6.89. The deltaH in assay [3] is -4.19 kcal/mol. Moreover, the negative logarithm of the IC50 (pIC50) with Influenza A virus is 7.40. The compound further displayed a deltaG in assay [5] of -9.3 kcal/mol.

For the compound `CC(N)C12CC3CC(CC(C3)C1)C2` (racemic) [RIMANTADINE], the inhibition in assay [1] and in assay [4] was 96% in each case. In addition, in assay [2], the -TdeltaS was -1.04 kcal/mol. This compound returned a deltaH in assay [3] of -7.6 kcal/mol. For the same compound, in the assay with Influenza A virus, the pIC50 was 7.30.

Take `C[C@H](N)C12CC3CC(CC(C3)C1)C2`: the figures for the inhibition in assay [1] and in assay [4] were 96% and 95%, respectively. Also, the -TdeltaS in assay [2] was -1.15 kcal/mol. In assay [3], this compound had a deltaH of -7.73 kcal/mol. The negative-log IC50 (pIC50) with Influenza A virus was 7.22.

A word on the inhibition: it is the relative decrease from the control value, in per cent. The term pIC50 denotes the IC50 on a negative log10 scale, so that one unit is a factor of ten. By pKd is commonly meant the negative decadic logarithm of the Kd, by convention in mol/L.
